Assay [1] concerns the target T1, Carbonic anhydrase 2 (Homo sapiens, UniProt P00918). Description: Binding affinity to recombinant human CA2 in pH 7 sodium phosphate buffer at 37 degC by isothermal titration calorimetry. In general terms: In ITC the heat of successive injections is recorded.
The target of a further assay is Carbonic anhydrase 3 (Homo sapiens, UniProt P07451). Description: Binding affinity to recombinant N-terminal His6x-tagged human CA3 (4 to 260 residues) expressed in Escherichia coli BL21(DE3) by DSF-based fluorescence thermal shift assay.
For assay [2], the target named is Carbonic anhydrase 5B, mitochondrial (Homo sapiens, UniProt Q9Y2D0). Briefly: Binding affinity to recombinant full length N-terminal His6x-tagged human CA5B expressed in Escherichia coli Rosetta 2 (DE3) by DSF-based fluorescence thermal shift assay.
The target in a further assay is Carbonic anhydrase 12 (Homo sapiens, UniProt O43570). Briefly: Binding affinity to recombinant human CA12 by DSF-based fluorescence thermal shift assay.
In another assay the target is Carbonic anhydrase 4 (Homo sapiens, UniProt P22748). Briefly: Binding affinity to recombinant human CA4 by DSF-based fluorescence thermal shift assay.
The target in a further assay is Carbonic anhydrase 7 (Homo sapiens, UniProt P43166). Description: Binding affinity to recombinant human CA7 by DSF-based fluorescence thermal shift assay.
The target in assay [3] is T1, Carbonic anhydrase 2. Briefly: Binding affinity to recombinant human CA2 by DSF-based fluorescence thermal shift assay.
A further assay addresses Carbonic anhydrase 6 (Homo sapiens, UniProt P23280). Description: Binding affinity to recombinant human CA6 by DSF-based fluorescence thermal shift assay.
The target of the next assay is Carbonic anhydrase 9 (Homo sapiens, UniProt Q16790). Briefly: Binding affinity to recombinant human CA9 by DSF-based fluorescence thermal shift assay.
The next assay deals with Carbonic anhydrase 1 (Homo sapiens, UniProt P00915). Briefly: Binding affinity to recombinant human CA1 by DSF-based fluorescence thermal shift assay.
A further assay has as its target Carbonic anhydrase 13 (Homo sapiens, UniProt Q8N1Q1). Briefly: Binding affinity to recombinant human CA13 by DSF-based fluorescence thermal shift assay.
Another assay addresses Carbonic anhydrase 14 (Homo sapiens, UniProt Q9ULX7). Briefly: Binding affinity to recombinant N-terminal His6x-tagged human CA14 (20 to 280 residues) catalytic domain expressed in Escherichia coli Rosetta 2 (DE3) by DSF-based fluorescence thermal shift assay.
The target in assay [4] is Carbonic anhydrase 5A, mitochondrial (Homo sapiens, UniProt P35218). Briefly: Binding affinity to recombinant full length C-terminal His6x-tagged human CA5A expressed in Escherichia coli BL21(DE3) by DSF-based fluorescence thermal shift assay.
Sequence of Carbonic anhydrase 5A, mitochondrial (P35218 whole entry): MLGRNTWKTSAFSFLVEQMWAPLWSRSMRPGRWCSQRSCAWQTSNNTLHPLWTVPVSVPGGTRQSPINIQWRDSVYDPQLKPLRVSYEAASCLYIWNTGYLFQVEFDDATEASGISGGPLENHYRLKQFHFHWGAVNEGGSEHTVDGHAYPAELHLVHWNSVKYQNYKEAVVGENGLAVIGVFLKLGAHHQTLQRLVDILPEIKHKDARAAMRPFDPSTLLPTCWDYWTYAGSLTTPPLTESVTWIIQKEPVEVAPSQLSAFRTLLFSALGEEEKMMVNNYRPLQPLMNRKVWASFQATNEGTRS

Sequence of Carbonic anhydrase 4 (P22748 whole entry): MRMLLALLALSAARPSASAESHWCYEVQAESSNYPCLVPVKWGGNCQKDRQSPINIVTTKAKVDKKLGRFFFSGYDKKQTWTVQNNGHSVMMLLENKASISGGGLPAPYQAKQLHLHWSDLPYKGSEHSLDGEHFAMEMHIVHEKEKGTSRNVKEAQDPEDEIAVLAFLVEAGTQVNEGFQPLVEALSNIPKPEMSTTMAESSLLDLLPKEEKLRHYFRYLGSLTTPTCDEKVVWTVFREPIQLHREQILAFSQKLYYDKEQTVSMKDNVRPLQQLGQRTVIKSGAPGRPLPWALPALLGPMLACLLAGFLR
Sequence of Carbonic anhydrase 3 (P07451 whole entry, the tested form may be a part): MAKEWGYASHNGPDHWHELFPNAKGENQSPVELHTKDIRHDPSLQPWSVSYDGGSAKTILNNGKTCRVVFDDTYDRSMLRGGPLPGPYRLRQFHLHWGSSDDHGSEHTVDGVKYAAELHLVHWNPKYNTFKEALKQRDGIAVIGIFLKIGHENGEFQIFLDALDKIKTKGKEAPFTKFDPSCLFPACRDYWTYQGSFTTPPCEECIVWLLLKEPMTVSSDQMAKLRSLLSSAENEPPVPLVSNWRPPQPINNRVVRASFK
Sequence of Carbonic anhydrase 5B, mitochondrial (Q9Y2D0 whole entry): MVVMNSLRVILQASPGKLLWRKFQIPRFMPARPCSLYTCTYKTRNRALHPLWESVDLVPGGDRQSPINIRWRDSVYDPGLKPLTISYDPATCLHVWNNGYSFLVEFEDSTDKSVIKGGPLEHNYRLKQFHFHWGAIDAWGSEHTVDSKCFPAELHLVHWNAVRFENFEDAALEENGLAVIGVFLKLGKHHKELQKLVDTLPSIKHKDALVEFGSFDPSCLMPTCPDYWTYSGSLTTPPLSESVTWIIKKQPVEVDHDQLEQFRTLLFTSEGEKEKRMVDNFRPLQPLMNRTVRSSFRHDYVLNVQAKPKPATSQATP
Sequence of Carbonic anhydrase 6 (P23280 whole entry): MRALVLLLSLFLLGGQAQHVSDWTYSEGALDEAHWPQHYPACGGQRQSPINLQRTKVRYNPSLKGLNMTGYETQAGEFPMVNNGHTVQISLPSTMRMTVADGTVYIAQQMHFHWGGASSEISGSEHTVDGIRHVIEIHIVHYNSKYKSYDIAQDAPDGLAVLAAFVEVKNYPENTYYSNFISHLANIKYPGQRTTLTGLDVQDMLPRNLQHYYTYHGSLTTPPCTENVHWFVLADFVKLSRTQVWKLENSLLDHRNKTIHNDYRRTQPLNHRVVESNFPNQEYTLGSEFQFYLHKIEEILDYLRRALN
Sequence of Carbonic anhydrase 12 (O43570 whole entry): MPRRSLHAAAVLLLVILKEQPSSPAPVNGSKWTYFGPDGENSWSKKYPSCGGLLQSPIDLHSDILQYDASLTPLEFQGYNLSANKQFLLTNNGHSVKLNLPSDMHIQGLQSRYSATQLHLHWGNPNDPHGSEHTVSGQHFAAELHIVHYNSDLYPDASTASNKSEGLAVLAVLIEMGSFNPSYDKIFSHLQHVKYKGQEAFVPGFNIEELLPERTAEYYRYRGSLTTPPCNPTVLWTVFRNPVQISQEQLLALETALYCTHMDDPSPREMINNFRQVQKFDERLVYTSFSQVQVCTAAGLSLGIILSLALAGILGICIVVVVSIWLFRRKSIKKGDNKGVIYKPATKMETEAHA
Sequence of Carbonic anhydrase 13 (Q8N1Q1 whole entry, the tested form may be a part): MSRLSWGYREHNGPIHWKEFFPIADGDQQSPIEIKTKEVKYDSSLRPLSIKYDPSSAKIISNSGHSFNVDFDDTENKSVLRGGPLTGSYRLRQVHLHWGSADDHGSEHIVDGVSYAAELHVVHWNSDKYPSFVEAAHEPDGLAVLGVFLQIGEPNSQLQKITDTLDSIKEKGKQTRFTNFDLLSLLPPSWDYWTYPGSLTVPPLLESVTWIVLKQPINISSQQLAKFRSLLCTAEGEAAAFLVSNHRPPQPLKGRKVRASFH
Sequence of Carbonic anhydrase 14 (Q9ULX7 whole entry, the tested form may be a part): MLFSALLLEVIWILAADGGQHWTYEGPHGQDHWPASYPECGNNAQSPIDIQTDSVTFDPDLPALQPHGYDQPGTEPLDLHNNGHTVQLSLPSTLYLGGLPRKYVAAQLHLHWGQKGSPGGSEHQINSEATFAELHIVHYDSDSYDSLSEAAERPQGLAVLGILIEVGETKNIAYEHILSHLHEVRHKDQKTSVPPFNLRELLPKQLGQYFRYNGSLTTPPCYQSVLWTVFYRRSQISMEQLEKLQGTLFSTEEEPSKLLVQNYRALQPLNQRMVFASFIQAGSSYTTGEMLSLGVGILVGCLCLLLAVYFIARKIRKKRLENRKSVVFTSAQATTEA
Sequence of Carbonic anhydrase 1 (P00915 whole entry): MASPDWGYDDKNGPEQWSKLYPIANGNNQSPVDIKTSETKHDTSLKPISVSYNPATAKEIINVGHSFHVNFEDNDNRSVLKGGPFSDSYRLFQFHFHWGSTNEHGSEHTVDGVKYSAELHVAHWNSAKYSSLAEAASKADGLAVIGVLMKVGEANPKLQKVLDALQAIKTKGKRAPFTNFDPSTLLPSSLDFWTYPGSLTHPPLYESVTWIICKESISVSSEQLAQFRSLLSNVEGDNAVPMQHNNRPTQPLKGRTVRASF
Sequence of Carbonic anhydrase 7 (P43166 whole entry): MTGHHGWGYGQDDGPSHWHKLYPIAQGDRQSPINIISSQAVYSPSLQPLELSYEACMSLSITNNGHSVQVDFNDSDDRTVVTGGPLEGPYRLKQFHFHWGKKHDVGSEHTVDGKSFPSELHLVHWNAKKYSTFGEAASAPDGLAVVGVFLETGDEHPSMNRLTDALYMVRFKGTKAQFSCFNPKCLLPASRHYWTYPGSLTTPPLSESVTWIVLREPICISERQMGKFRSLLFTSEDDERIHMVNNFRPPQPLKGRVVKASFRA

Turning to `Cc1cc(C)n(C(=O)C2CC(=O)N(c3cc(C)c(S(N)(=O)=O)c(C)c3)C2)n1` (stereo not drawn), the Kd – broadly, the concentration at which binding is half-saturated – is 318 nM on Carbonic anhydrase 2 [1]; at least 200000 nM on Carbonic anhydrase 3; 500 nM in [2]; 8300 nM on Carbonic anhydrase 12; 6000 nM at Carbonic anhydrase 4; 3300 nM at Carbonic anhydrase 7. In addition, the Kd on Carbonic anhydrase 2 [3] is 910 nM; at Carbonic anhydrase 6, 28000 nM; at Carbonic anhydrase 9, 2000 nM; at Carbonic anhydrase 1, 1500 nM; on Carbonic anhydrase 13, 3700 nM.
Consider `Cc1cc(N2CC(C(=O)N/N=C/c3ccccc3)CC2=O)c(Cl)c(C)c1S(N)(=O)=O` (stereo not drawn), for which the Kd on Carbonic anhydrase 3 is at least 200000 nM; in [2], 20 nM; at Carbonic anhydrase 12, 770 nM; at Carbonic anhydrase 4, 770 nM; on Carbonic anhydrase 7, 33 nM; at Carbonic anhydrase 2 [3], 56 nM. Moreover, the Kd was 1400 nM on Carbonic anhydrase 6; 100 nM at Carbonic anhydrase 9; 560 nM at Carbonic anhydrase 1; 33 nM on Carbonic anhydrase 13; 12 nM at Carbonic anhydrase 14.
For the molecule `Cc1cc(S(N)(=O)=O)c(C)cc1N1CC(C(=O)NN)CC1=O` (stereo not drawn), the Kd at Carbonic anhydrase 3 was at least 200000 nM; in [2], 660 nM; on Carbonic anhydrase 12, 21000 nM; at Carbonic anhydrase 4, 14000 nM; at Carbonic anhydrase 7, 4400 nM; at Carbonic anhydrase 2 [3], 8100 nM. Also, the dissociation constant Kd on Carbonic anhydrase 6 came to 24000 nM; on Carbonic anhydrase 9, 9000 nM; at Carbonic anhydrase 1 it was 58000 nM; at Carbonic anhydrase 13, 2800 nM; on Carbonic anhydrase 14, 4000 nM.
For `Cc1cc(N2CC(C(=O)NN)CC2=O)cc(C)c1S(N)(=O)=O` (stereo not drawn), the Kd was at least 200000 nM on Carbonic anhydrase 3; 1400 nM in [2]; 50000 nM on Carbonic anhydrase 12; 20000 nM in assay [4]; 9100 nM on Carbonic anhydrase 4; 50000 nM on Carbonic anhydrase 7. The Kd turned out to be 11000 nM at Carbonic anhydrase 2 [3]; 50000 nM on Carbonic anhydrase 6; 13000 nM on Carbonic anhydrase 9; 17000 nM on Carbonic anhydrase 1; 100000 nM on Carbonic anhydrase 13; 5000 nM at Carbonic anhydrase 14.
On to `Cc1cc(N2CC(C(=O)N/N=C/c3ccccc3)CC2=O)cc(C)c1S(N)(=O)=O` (stereo not drawn), for which the Kd at Carbonic anhydrase 3 was at least 200000 nM; in assay [2], 710 nM; on Carbonic anhydrase 12, 29000 nM; in [4], 2000 nM; at Carbonic anhydrase 4, 5000 nM; on Carbonic anhydrase 7, 30000 nM. The Kd on Carbonic anhydrase 2 [3] was found to be 2200 nM; at Carbonic anhydrase 6, 25000 nM; at Carbonic anhydrase 9 it was 2000 nM; on Carbonic anhydrase 1, 2200 nM; on Carbonic anhydrase 13, 22000 nM; on Carbonic anhydrase 14, 2000 nM.
In the case of `COC(=O)C1CC(=O)N(c2cc(C)c(S(N)(=O)=O)cc2C)C1` (stereo not drawn), the Kd is at least 200000 nM on Carbonic anhydrase 3; 180 nM in assay [2]; 12000 nM on Carbonic anhydrase 12; 10000 nM on Carbonic anhydrase 4; 31 nM on Carbonic anhydrase 7; 1600 nM at Carbonic anhydrase 2 [3]. For the same molecule, the Kd was determined as 29000 nM at Carbonic anhydrase 6; 1600 nM at Carbonic anhydrase 9; 11000 nM on Carbonic anhydrase 1; 580 nM at Carbonic anhydrase 13; 840 nM on Carbonic anhydrase 14.
Regarding `Cc1cc(S(N)(=O)=O)c(C)cc1N1CC(C(=O)O)CC1=O` (stereo not drawn), the Kd at Carbonic anhydrase 3 came to 160000 nM; in [2] it was 1100 nM; on Carbonic anhydrase 12 it was 8100 nM; on Carbonic anhydrase 4 it was 19000 nM; at Carbonic anhydrase 7, 2700 nM; on Carbonic anhydrase 2 [3], 6400 nM. Besides, the Kd on Carbonic anhydrase 6 amounted to 22000 nM; on Carbonic anhydrase 9 it was 2600 nM; at Carbonic anhydrase 1, 38000 nM; at Carbonic anhydrase 13 it was 670 nM; at Carbonic anhydrase 14, 3900 nM.
Consider `NNC(=O)C1CC(=O)N(c2ccc(S(N)(=O)=O)cc2)C1` (stereo not drawn), for which the Kd at Carbonic anhydrase 3 is at least 200000 nM; in assay [2] it was 10000 nM; at Carbonic anhydrase 12, 4000 nM; in assay [4] it was 50000 nM; on Carbonic anhydrase 4, 2200 nM; at Carbonic anhydrase 7 it was 670 nM. Also, the Kd was determined as 500 nM on Carbonic anhydrase 2 [3]; 10000 nM at Carbonic anhydrase 6; 630 nM at Carbonic anhydrase 9; 3300 nM at Carbonic anhydrase 1; 7700 nM on Carbonic anhydrase 13; 910 nM at Carbonic anhydrase 14.
For the molecule `Cc1cc(N2CC(C(=O)O)CC2=O)cc(C)c1S(N)(=O)=O` (stereo not drawn), the Kd on Carbonic anhydrase 3 was at least 200000 nM; in assay [2], 3300 nM; on Carbonic anhydrase 12, 7700 nM; in assay [4] it was 8300 nM; on Carbonic anhydrase 4, 5900 nM; at Carbonic anhydrase 7, 20000 nM. Besides, the Kd turned out to be 12000 nM at Carbonic anhydrase 2 [3]; 25000 nM at Carbonic anhydrase 6; 5000 nM at Carbonic anhydrase 9; 20000 nM at Carbonic anhydrase 1; 8300 nM on Carbonic anhydrase 13; 3200 nM on Carbonic anhydrase 14.
As to `COC(=O)C1CC(=O)N(c2ccc(S(N)(=O)=O)cc2)C1` (stereo not drawn), the Kd at Carbonic anhydrase 3 is at least 200000 nM; in assay [2], 3300 nM; on Carbonic anhydrase 12, 4000 nM; on Carbonic anhydrase 4 it was 1500 nM; at Carbonic anhydrase 7, 130 nM; on Carbonic anhydrase 2 [3] it was 150 nM. For the same molecule, the Kd came to 94 nM at Carbonic anhydrase 6; 170 nM on Carbonic anhydrase 9; 1000 nM at Carbonic anhydrase 1; 1100 nM at Carbonic anhydrase 13; 96 nM on Carbonic anhydrase 14.
Take `NS(=O)(=O)c1ccc(N2CC(C(=O)N/N=C/c3ccccc3)CC2=O)cc1` (stereo not drawn): the Kd on Carbonic anhydrase 3 was at least 200000 nM; in assay [2] it was 1300 nM; on Carbonic anhydrase 12, 2500 nM; in assay [4] it was 1700 nM; on Carbonic anhydrase 4, 1300 nM; on Carbonic anhydrase 7, 500 nM. Also, the Kd was 170 nM at Carbonic anhydrase 2 [3]; 2000 nM on Carbonic anhydrase 6; 59 nM at Carbonic anhydrase 9; 630 nM at Carbonic anhydrase 1; 830 nM at Carbonic anhydrase 13; 200 nM on Carbonic anhydrase 14.
Regarding `Cc1cc(N2CC(C(=O)O)CC2=O)c(Cl)c(C)c1S(N)(=O)=O` (stereo not drawn), the Kd on Carbonic anhydrase 2 [1] was 697 nM; at Carbonic anhydrase 3, 110000 nM; in [2], 530 nM; at Carbonic anhydrase 12, 1300 nM; on Carbonic anhydrase 4 it was 360 nM; on Carbonic anhydrase 7 it was 56 nM. For the same molecule, the Kd is 220 nM at Carbonic anhydrase 2 [3]; 6300 nM on Carbonic anhydrase 6; 290 nM at Carbonic anhydrase 9; 4300 nM at Carbonic anhydrase 1; 220 nM at Carbonic anhydrase 13.
Consider `Cc1cc(S(N)(=O)=O)c(C)cc1N1CC(C(=O)N/N=C/c2ccccc2)CC1=O` (stereo not drawn), for which the Kd at Carbonic anhydrase 3 is at least 200000 nM; in assay [2], 28 nM; at Carbonic anhydrase 12, 9300 nM; on Carbonic anhydrase 4 it was 7600 nM; at Carbonic anhydrase 7, 1900 nM; at Carbonic anhydrase 2 [3], 1300 nM. Moreover, the Kd at Carbonic anhydrase 6 amounted to 9600 nM; at Carbonic anhydrase 9 it was 1400 nM; on Carbonic anhydrase 1, 7100 nM; at Carbonic anhydrase 13, 420 nM; on Carbonic anhydrase 14, 470 nM.
